Laboratory results reported in patent US20030157715A1, “Modulation of chromosome function by chromatin remodeling agents” (priority 2000, published 2003).
“And” between values parts separate entries of the source, which are not always exact repeats. Equal values may be shown once. “Also recorded” adds a separate entry of the source.

Tests used:
[1] = test system: satellite III chromatin in Kc nuclei; assay: Chromatin opening of satellite III: topoisomerase II / restriction enzyme cleavage in Kc nuclei; type: biochemical, Drosophila
[2] = test system: w^m4 flies; assay: Polyamides fed to developing white-mottled flies; type: in vivo, Drosophila melanogaster; details: for Lethality / Sex comb (mean) / Sex comb, range of teeth / A6 to A5: fly stock w^m4; for A6 to A5: males with bristles on A6
Source text: The eye phenotype of w^m4 flies is quite heterogeneous. About 65% of the eyes are strongly variegated, ranging from quasi-white with little pigment to those containing a generally white background and a number of red patches (defined as the white-mottled class). The remaining flies have eyes with a darker appearance with often larger red patches in an orange background (red-mottled class). Given the phenotypic heterogeneity of w^m4 flies, we carried out our experiments on a relatively large scale by mixing these compounds directly with semi-synthetic fly medium. Vials were prepared containing a final concentration of either 100 μM P9, P31 or no compound. Equal numbers of 5 to 10 days old w^m4 flies were allowed to lay eggs for 36 hours. The parents were then removed and progeny development was allowed to proceed at a constant temperature of 18° C. […] The timing of the developmental stages was also normal and generally, around 90 to 160 flies hatched per vial in this experiment (Table 2).
For eye phenotype analysis, young flies born on the same day were transferred to a drug-free vial and scored 5 days thereafter. Eye phenotypes were categorized into the two classes defined as white-mottled or red-mottled, after examination under a dissection microscope. […] Where in the absence of the drug, 62% of the eyes were scored as white-mottled, only 11% retained this phenotype for the flies raised in the presence of P9. […] In contrast, P31 had no effect on the w^m4 eye phenotype, since 64% of the flies remained white-mottled (FIG. 7C, Table 2).
Vials for egg laying containing polyamides were prepared as follows: 250 nmoles of P9, P31 was dissolved in 150 μl ddH2O and then mixed with 2.35 g of semi-synthetic fly media pre-heated at 60° C. These vials contained a concentration 100 μM of compound in final. After cooling down to room temperature, ˜300 w^m4 flies (age 5-10 days) were added to the vial for egg laying. Eggs were collected for a period of 36 hours at 18° C., mother flies were then removed and fly development was allowed to proceed at a constant temperature (18° C.±1). New-born flies of the same day were transferred to a fresh vial and scored after 5 days for eye phenotypes (Girard et al., 1998). For visual inspection of eye-phenotypes (Table 1), both female and male flies were scored. For optical density measurements of the eye-pigments, 30 heads of males were selected, pigments extracted and measured as described (Hazelrigg et al., 1984).
(§1) The lethality of the progenies was calculated by counting the dead bodies and the total empty pupal shells. The A6 to A5 transformation was detected by bristles that form on abdominal segment A6 on males. All male adult flies obtained (˜50) were scored. Sex combs and halteres were individually inspected and photographed under the microscope (Axiophot, Zeiss) after dissecting at least 30 individuals and incubating them into 30 μl of 0.6 g/ml gum arabic; 4 g/ml chlorohydrate; 35% glycerol under a 24×24 mm coverslip as described (Ashburner, 1989). Since raising double heterozygous flies (Ubx^1/+; bw^D/+) led to lethality, we morphologically dissected eight late stage pupae after carefully removing the pupal envelope.

[3] = test system: heterozygous bw^D flies (bw^D/+); assay: Polyamides fed to developing heterozygous brown-dominant flies; type: in vivo, Drosophila melanogaster; details: for eye phenotype / trans-inactivation (in words): bw^D/+, st/st progeny
Description: It was therefore of great interest to test whether P31 would affect the eye phenotype of heterozygous bw^D flies. […] The experiment is similar to that described above for w^m4. Vials with semi-synthetic fly food medium were prepared containing a final concentration of 100 μM P31, P9 or no compound. Egg laying was allowed to proceed for 36 hours by homozygous (bw^D/bw^D) females that were crossed with scarlet (st/st) males. The progeny from this cross is heterozygous for the brown locus and homozygous for scarlet (bw^D/+; st/st). In a scarlet background, a modification of the bw^D eye color is much easier to observe (Talbert et al., 1994).
Drug treatments of the bw^D flies were performed as for w^m4 flies except that 30 parental females were allowed to lay eggs. To obtain the heterozygous bw^D/+; st/st progeny, 30 virgin bw^D/bw^D; st/st homozygous females were mated with scarlet homozygous males for about 5 days before transferring them to experimental vials for egg laying.
as §1

[4] = test system: GAF distribution at the bw^D insert of polytene nuclei; assay: GAF immunofluorescence in permeabilized bw^D salivary glands; type: cell-based, Drosophila melanogaster; details: permeabilized glands incubated 60 minutes with compound
Description: We argued that perhaps P31 may open the bw^D insert as to render this heterochromatin more accessible for GAF binding. To address this question, we incubated permeabilized bw^D salivary glands either with P31, P9 or no drug and then triply stained the polytene nuclei for GAF (by immunofluorescence), total DNA (with DAPI) and for the bw^D insert (with P31T). Stained polytene glands were gently mounted for microscopy without squashing in order examine a large number of nuclei.
Kc nuclei and polytene chromosomes were stained with fluorescent polyamides as described elsewhere (Janssen et al., 2000). For immunofluorescence, polytene glands were carefully dissected from bw^D or Canton S. flies in 1× PBS as described (Ashburner, 1989) Whole glands in sol P (1×PBS supplemented with 1 mM MgCl2 and 0.1% digitonin) were then incubated for 60 minutes with various concentrations of either P31, P9 or no compound at room temperature. P31 (not P9) induced redistribution of GAF during this incubation step. Glands were washed then twice for 5 min with sol P and fixed with fresh paraformaldehyde at a final concentration of 0.8%. Glands were washed 5 times in sol P for 5 min and then blocked for 60 min in the same buffer, supplemented with 5% non-fat milk. […] Images were recorded with a wide field, deconvolution-type imaging system from DeltaVision.

[5] = 100 μM in fly food, eyes scored after 5 days
[6] = 30 male heads, spectrometry, 100 μM in food

SMILES: CN(C)CCCNC(=O)CCNC(=O)c1cc(NC(=O)c2cc(NC(=O)c3cc(NC(=O)CCNC(=O)c4cc(NC(=O)c5cc(NC(=O)c6cccn6C)cn5C)cn4C)cn3C)cn2C)cn1C [Compound P9, PyPyPy-β-PyPyPy-β-Dp]
- facilitation of cleavage by topoisomerase II (in words) [1]: strongly facilitate cleavage
- stimulation of topoisomerase II cleavage at 62 nM ([1]; 62 nM, lowest concentration): massive cleavage stimulation
- concentration of maximal stimulation of topoisomerase II cleavage ([1]; Kc nuclei in Xenopus egg extracts, VM26): 500 nM and 500 to 1000 nM
- lower concentration than P31 needed to open satellite III ([1]; P9 versus P31): roughly 10 fold
- cleavage within satellite III by restriction enzymes (HaeIII) ([1]; data not shown): facilitated cleavage within satellite III by restriction enzymes
- effect on PEV / w^m4 eye phenotype (in words) ([2]; 100 μM in fly food): strong suppressor of PEV
- "White mottled" (Strongly Variegated) [2, 5]: 8.9%
- red pigment level relative to control flies (no drug) [2, 6]: about 3 times
- red pigment level relative to wild type flies [2, 6]: about 50%
- Lethality [2]: 5-10%
- Sex comb (mean) [2]: 10.8
- Sex comb, range of teeth [2]: 9-12
- A6 to A5 [2]: 0%
- eye phenotype / trans-inactivation (in words) [3]: indistinguishable from that of the no-drug control
- A6 to A5, number of bristles on A6 ([3]; fly stock bw^D/bw^+): no bristles were observed
- Lethality ([3]; fly stock bw^D/bw^+): 5-10%
- A6 to A5 ([3]; fly stock bw^D/bw^+, males with bristles on A6): 0%
- GAF distribution relative to the bw^D insert [4]: does not alter this pattern

SMILES: CN(C)CCCNC(=O)CCNC(=O)c1nc(NC(=O)CCNC(=O)c2nc(NC(=O)CCNC(=O)c3cc(NC(=O)c4nc(NC(=O)CCNC(=O)c5nccn5C)cn4C)cn3C)cn2C)cn1C [Compound P31, Im-β-Im-Py-β-Im-β-Im-β-Dp]
- concentration giving cleavage stimulation comparable to 62 nM of P9 [1]: 500 nM
- stimulation of topoisomerase II cleavage up to 200 nM ([1]; up to 200 nM): no significant reinforcement
- effect on PEV / w^m4 eye phenotype (in words) ([2]; 100 μM in fly food): no effect; also recorded: no activity
- "White mottled" (Strongly Variegated) [2, 5]: 64%
- "red Mottled" (Weakly Variegated) [2, 5]: 36%
- Lethality [2]: 5-10%
- Sex comb (mean) [2]: 10.8
- Sex comb, range of teeth [2]: 9-13
- A6 to A5 [2]: 0%
- mean number of bristles on A6 ([3]; bw^D/+ progeny): 3.75
- eye phenotype / trans-inactivation (in words) [3]: does not overcome trans-inactivation to a significant extent
- Lethality ([3]; fly stock bw^D/bw^+): 5-10%
- Sex comb (mean) ([3]; fly stock bw^D/bw^+): 8.1
- Sex comb, range of teeth ([3]; fly stock bw^D/bw^+): 7-10
- PEV ([3]; fly stock bw^D/bw^+, grade, key not given): (+?)
- progeny lacking bristles on A6 ([3]; heterozygous progeny): about 10%
- Pupae delay ([3]; in vivo): 65 to 67 h
- developmental delay ([3]; in vivo): over 2 days
- GAF distribution relative to the bw^D insert [4]: dramatic GAF redistribution
